Laboratory results taken from PubChem BioAssay (NCI).
Several values for one entry are separate records, joined by “and”; a condition that tells them apart may be missing. Equal entries are not always repeated.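 All cell lines were grown in 96-well plates and treated with compound for 48 hours. Here, GI50 denotes the concentration required for 50% inhibition of growth. TGI denotes the concentration required for complete inhibition of growth.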

How the values were obtained:
Experiment in all cases: inhibition of tumour cell growth, NCI panel, 48 h
[1] = tested on: NCI/ADR-RES ovarian
[2] = tested on: K-562 leukemia
[3] = tested on: NCI-H23 lung
[4] = tested on: HS 578T breast
[5] = tested on: ACHN renal
[6] = tested on: MALME-3M melanoma
[7] = tested on: HT29 colon
[8] = tested on: SK-MEL-5 melanoma
[9] = tested on: EKVX NSCLC
[10] = tested on: NCI-H226 lung

| Structure (SMILES) | TGI [1] [µM] | TGI [2] [µM] | TGI [3] [µM] | TGI [4] [µM] | TGI [5] [µM] | TGI [6] [µM] | TGI [7] [µM] | TGI [8] [µM] | TGI [9] [µM] | GI50 [2] [µM] | GI50 [3] | GI50 [5] [µM] | GI50 [6] [µM] | GI50 [7] [µM] | GI50 [8] [µM] | GI50 [9] [µM] | GI50 [10] [µM] | TGI [10] [µM] | GI50 [1] [µM] | GI50 [4] [µM] |
| --- | --- | --- | --- | --- | --- | --- | --- | --- | --- | --- | --- | --- | --- | --- | --- | --- | --- | --- | --- | --- |
| O=C(CCl)N1CCN(c2ccccn2)CC1 | 57.7 | > 100 | 39.9 | > 100 | 61.2 | 31.8 | 32.3 | 35 | 48.6 | – | – | – | – | – | – | – | – | – | – | – |
| [pH]1p2[pH]p3p1p3[pH]2.c1cc[c]([Ge]([c]2ccccc2)[c]2ccccc2)cc1.c1cc[c]([Ge]([c]2ccccc2)[c]2ccccc2)cc1.c1cc[c]([Ge]([c]2ccccc2)[c]2ccccc2)cc1 | – | 43.5 | 31.2 | – | 36.2 | 28.1 | 34 | 53.1 | 46.3 | 16.4 | 15.3 µM | 16.9 | 14.3 | 17.6 | 34.1 | 21.3 | 20.5 | 37.2 | – | – |
| CCN(CC)CCN1C(=O)c2c(c3c4cccc(Cl)c4n(C4OC(CO)C(OC)C(O)C4O)c3c3[nH]c4c(Cl)cccc4c23)C1=O (stereo not drawn) | – | – | – | 1.99 | – | – | – | – | – | – | 0.000398 µM and < 0.0329 µM and < 0.01 µM | < 0.0001 | – | < 0.0001 | – | – | – | – | – | – |
| Cc1c(C(=O)/C=C/c2ccc([N+](=O)[O-])cc2)[n+](=O)c2ccccc2n1[O-] | – | > 100 | 86.7 | – | > 100 | > 100 | > 100 | – | > 100 | – | – | – | – | – | – | – | – | > 100 | – | – |
| COc1cc(C2C=C(C)N=C3SC=C(C)N32)cc(OC)c1OC (stereo not drawn) | > 100 | – | 5.41 | 74.2 | 3.61 | – | – | 2.21 | – | – | 1.77 µM | 0.618 | – | – | 1 | – | 1.88 | 5.81 | 0.454 | 2.95 |
| Oc1ccc(I)c2cccnc12 | – | 23.8 | 55.2 | – | > 100 | 61.8 | > 100 | – | 65.2 | – | – | – | – | – | – | – | – | 41.8 | – | – |
| O=C(CC(=O)N1N=C(n2ccc3ccccc32)CC1c1ccccc1)Nc1ccccc1Cl (stereo not drawn) | – | > 100 | > 100 | – | > 100 | > 100 | > 100 | – | > 100 | – | – | – | – | – | – | – | – | – | – | – |
| NC(=S)N/N=C/C(O[C@@H](/C=N/NC(N)=S)CO)n1cnc2c(N)ncnc21 (stereo partly drawn) | – | > 100 | > 100 | – | > 100 | > 100 | > 100 | > 100 | > 100 | – | – | – | – | – | – | – | – | > 100 | – | – |
| CC1CN1c1c(C(=O)/C=C/c2ccc(F)cc2)c(-c2ccccc2)nn(C)c1=O (stereo not drawn) | – | – | 27.1 | – | 36.3 | 30 | 30.9 | 29.5 | 33.4 | – | – | – | – | – | – | – | – | 25.3 | – | – |
| N#C/C(=C\c1ccc(O)c(O)c1)C(=O)NCc1cccc(C(F)(F)F)c1 | 34.6 | > 100 | 31.5 | 47.3 | 35.2 | 25.2 | 56.3 | 19.3 | 39.8 | 21.3 | 12.2 µM | 5.53 | 2.03 | 22 | 5.29 | 13.7 | – | – | 10.1 | 12 |
| Oc1ccc(/C=N/NC(=S)Nc2ccccc2)nc1 | > 100 | > 100 | > 100 | > 100 | > 100 | 30.6 | > 100 | 3.36 | – | 3.72 | 3.34 µM | 0.552 | 2.19 | 5.83 | 0.754 | – | 2.33 | 6.83 | 1.43 | 9.84 |
| O=c1[nH]c(-c2ccccc2)nc2cc([N+](=O)[O-])c(/C(Cl)=C/c3ccccc3)cc12 | – | > 100 | > 100 | – | > 100 | > 100 | – | 74 | > 100 | – | – | – | – | – | – | – | – | > 100 | – | – |
| COc1ccc(/C=C/C(=O)C(=O)/C=C/c2ccc(OC)c(OC)c2)cc1OC | > 100 | > 100 | > 100 | > 100 | 5.4 | 78.8 | 2.62 | 6.15 | > 100 | 1.07 | 2.99 µM | 2.05 | 5.77 | 0.763 | 2.14 | 5 | – | – | 4.2 | 2.71 |
| CC(=O)[CH-]C(=O)c1ccccc1.CC(=O)[CH-]C(=O)c1ccccc1.CC[C@H](CCC(C)[C@H]1CCC2[C@@H]3CC=C4C[C@@H]([O-])CC[C@]4(C)C3CC[C@@]21C)C(C)C.CC[C@H](CCC(C)[C@H]1CCC2[C@@H]3CC=C4C[C@@H]([O-])CC[C@]4(C)C3CC[C@@]21C)C(C)C.Cl.[Ti+4] (stereo partly drawn) | – | > 25 | > 25 | – | > 25 | > 25 | > 25 | > 25 | > 25 | – | – | – | – | – | – | – | – | > 25 | – | – |
| CC(=O)[CH-]C(=O)c1ccccc1.CC(=O)[CH-]C(=O)c1ccccc1.CC(=O)[CH-]C(=O)c1ccccc1.[Cl-].[Hf+4] | – | > 100 | > 100 | – | > 100 | 39.8 | > 100 | > 100 | 92.9 | 37.6 | 39.1 µM | 31.3 | 14.8 | 19.1 | 32.5 | 24.2 | – | – | – | – |
| CC(=O)NNc1nc(C)c(C(=O)/C=C/c2ccc(N(C)C)cc2)s1 | – | > 100 | > 100 | – | > 100 | > 100 | > 100 | > 100 | > 100 | – | – | – | – | – | – | – | – | > 100 | – | – |
| O=C(CC(O)(C(F)(F)F)C(F)(F)F)c1cccs1 | > 10 | > 10 | > 10 | > 10 | > 10 | > 10 | > 10 | > 10 | – | – | – | – | – | – | – | – | – | – | – | – |
| C=CCc1cc(OC)c(O)c(C(=O)/C=C/c2ccc(OC)c(OC)c2)c1 | – | 41.8 | 30.5 | – | 45.9 | 37 | 33.1 | 36.6 | 52.5 | – | – | – | – | – | – | – | – | – | – | – |
| Cn1ccc(S(=O)(=O)N2CCC[C@H](Nc3nccc(-c4c(-c5cccc(O)c5)nc5occn45)n3)C2)n1 | > 100 | > 100 | 41.8 | 93.5 | > 100 | – | 34.7 | 18.6 | – | 13.9 | 12 µM | 7.19 | – | 0.732 | 3.51 | – | 11.5 | > 84.8 | > 78.7 | 7.57 |
